Assay results as given in US20250064093A1, “FERMENTED PH-INDEPENDENT SOLUTION SPOILAGE CONTROL IN FOOD SYSTEMS” (Third Wave Bioactives, LLC, priority 2023, published 2025).

Test system: yeast
Assay: Natural spoilage of chicken salad, growth of yeast
Assay type: cell-based
Details: 500 ppm Nisin
Procedure: The chicken salad was freshly made and allowed to spoil naturally over time. To prevent the product from being spoiled by Lactic Acid Bacteria (LAB), which can cause an accumulation of lactic acid reducing the pH over time, Nisin preparation (500 ppm) was added. Treatments included a no preservative Control, 500 ppm Nisin, 0.1% Potassium sorbate +500 ppm Nisin (Ps+N), and 1% Bacillus fermentate +500 ppm Nisin (BA+N). Usage rates were in the range of typical inclusion in finished foods.

Substance: nisin
- yeast counts compared to Bacillus-treated samples: rose much higher
